Measurements published in ChEMBL document CHEMBL5649169 (ChemMedChem, 2018).

Tests used:
[1] = target: ATP synthase peripheral stalk subunit b, mitochondrial (Homo sapiens) (UniProt P24539); further: assay method not described here
[2] = target: Proteasome activator complex subunit 1 (Homo sapiens) (UniProt Q06323); further: assay method not described here
[3] = target: Serine/threonine-protein kinase TAO1 (Homo sapiens) (UniProt Q7L7X3); further: assay method not described here
[4] = target: Ribosomal protein S6 kinase alpha-1 (Homo sapiens) (UniProt Q15418); further: assay method not described here
[5] = target: Serine/threonine-protein kinase Nek7 (Homo sapiens) (UniProt Q8TDX7); further: assay method not described here
[6] = target: Transcription elongation regulator 1 (Homo sapiens) (UniProt O14776); further: assay method not described here
[7] = target: Large ribosomal subunit protein uL24 (Homo sapiens) (UniProt P61254); further: assay method not described here
[8] = target: Large ribosomal subunit protein eL33 (Homo sapiens) (UniProt P18077); further: assay method not described here
[9] = target: Activin receptor type-2B (Homo sapiens) (UniProt Q13705); further: assay method not described here
[10] = target: Pre-mRNA-splicing factor SPF27 (Homo sapiens) (UniProt O75934); further: assay method not described here
[11] = organism: Homo sapiens; further: assay method not described here
[12] = target: ATP-dependent RNA helicase DDX24 (Homo sapiens) (UniProt Q9GZR7); further: assay method not described here
[13] = target: Prothymosin alpha (Homo sapiens) (UniProt P06454); further: assay method not described here
[14] = target: Mitogen-activated protein kinase kinase kinase 20 (Homo sapiens) (UniProt Q9NYL2); further: assay method not described here
[15] = target: Protein arginine N-methyltransferase 5 (Homo sapiens) (UniProt O14744); further: assay method not described here
[16] = target: Calcium/calmodulin-dependent protein kinase kinase 2 (Homo sapiens) (UniProt Q96RR4); further: assay method not described here
[17] = target: AP-2 complex subunit alpha-1 (Homo sapiens) (UniProt O95782); further: assay method not described here
[18] = target: Glutathione S-transferase P (Homo sapiens) (UniProt P09211); further: assay method not described here
[19] = target: Acylamino-acid-releasing enzyme (Homo sapiens) (UniProt P13798); further: assay method not described here
[20] = target: Phosphatidylserine synthase 1 (Homo sapiens) (UniProt P48651); further: assay method not described here
[21] = target: Vesicle-trafficking protein SEC22b (Homo sapiens) (UniProt O75396); further: assay method not described here
[22] = organism: Homo sapiens; remark: listed apart in the source; further: assay method not described here
[23] = target: Small ribosomal subunit protein uS3 (Homo sapiens) (UniProt P23396); further: assay method not described here
[24] = target: Importin-4 (Homo sapiens) (UniProt Q8TEX9); further: assay method not described here
[25] = organism: Homo sapiens; remark: listed apart in the source; further: assay method not described here
[26] = target: Interleukin enhancer-binding factor 3 (Homo sapiens) (UniProt Q12906); further: assay method not described here
[27] = target: Ribosomal protein eS27-like (Homo sapiens) (UniProt Q71UM5); further: assay method not described here
[28] = target: Histone deacetylase 2 (Homo sapiens) (UniProt Q92769); further: assay method not described here
[29] = target: Poly(rC)-binding protein 1 (Homo sapiens) (UniProt Q15365); further: assay method not described here
[30] = target: Calcium/calmodulin-dependent protein kinase type II subunit delta (Homo sapiens) (UniProt Q13557); further: assay method not described here
[31] = target: X-ray repair cross-complementing protein 6 (Homo sapiens) (UniProt P12956); further: assay method not described here
[32] = target: Ephrin type-B receptor 4 (Homo sapiens, UniProt P54760); type: cell-based, HEK293T
[33] = target: Casein kinase II subunit beta (Homo sapiens) (UniProt P67870); further: assay method not described here
[34] = target: Fatty acyl-CoA reductase 1 (Homo sapiens) (UniProt Q8WVX9); further: assay method not described here
[35] = target: ATPase family AAA domain-containing protein 3B (Homo sapiens) (UniProt Q5T9A4); further: assay method not described here
[36] = target: 14-3-3 protein theta (Homo sapiens) (UniProt P27348); further: assay method not described here
[37] = target: Lamin-B2 (Homo sapiens) (UniProt Q03252); further: assay method not described here
[38] = target: Actin-like protein 6A (Homo sapiens) (UniProt O96019); further: assay method not described here
[39] = target: Adenosine 3'-phospho 5'-phosphosulfate transporter 1 (Homo sapiens) (UniProt Q8TB61); further: assay method not described here
[40] = target: Membrane-bound acylglycerophosphatidylinositol O-acyltransferase MBOAT7 (Homo sapiens) (UniProt Q96N66); further: assay method not described here
[41] = target: Serine/arginine-rich splicing factor 6 (Homo sapiens) (UniProt Q13247); further: assay method not described here
[42] = target: Microtubule-associated protein 1B (Homo sapiens) (UniProt P46821); further: assay method not described here
[43] = target: Discoidin domain-containing receptor 2 (Homo sapiens) (UniProt Q16832); further: assay method not described here
[44] = target: Serine/threonine-protein kinase D2 (Homo sapiens) (UniProt Q9BZL6); further: assay method not described here
[45] = target: Tubulin beta-4B chain (Homo sapiens) (UniProt P68371); further: assay method not described here
[46] = target: 7-dehydrocholesterol reductase (Homo sapiens) (UniProt Q9UBM7); further: assay method not described here
[47] = target: Heat shock cognate 71 kDa protein (Homo sapiens) (UniProt P11142); further: assay method not described here

Glutathione S-transferase P (Homo sapiens), sequence (P09211 2-210 limits assumed): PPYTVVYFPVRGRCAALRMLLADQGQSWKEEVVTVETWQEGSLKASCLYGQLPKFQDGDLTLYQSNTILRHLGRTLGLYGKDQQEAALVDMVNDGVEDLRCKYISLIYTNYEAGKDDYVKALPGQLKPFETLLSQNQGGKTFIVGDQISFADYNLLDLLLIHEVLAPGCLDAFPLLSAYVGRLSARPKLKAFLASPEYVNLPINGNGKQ
Microtubule-associated protein 1B (Homo sapiens), sequence (P46821 2-2206 limits assumed): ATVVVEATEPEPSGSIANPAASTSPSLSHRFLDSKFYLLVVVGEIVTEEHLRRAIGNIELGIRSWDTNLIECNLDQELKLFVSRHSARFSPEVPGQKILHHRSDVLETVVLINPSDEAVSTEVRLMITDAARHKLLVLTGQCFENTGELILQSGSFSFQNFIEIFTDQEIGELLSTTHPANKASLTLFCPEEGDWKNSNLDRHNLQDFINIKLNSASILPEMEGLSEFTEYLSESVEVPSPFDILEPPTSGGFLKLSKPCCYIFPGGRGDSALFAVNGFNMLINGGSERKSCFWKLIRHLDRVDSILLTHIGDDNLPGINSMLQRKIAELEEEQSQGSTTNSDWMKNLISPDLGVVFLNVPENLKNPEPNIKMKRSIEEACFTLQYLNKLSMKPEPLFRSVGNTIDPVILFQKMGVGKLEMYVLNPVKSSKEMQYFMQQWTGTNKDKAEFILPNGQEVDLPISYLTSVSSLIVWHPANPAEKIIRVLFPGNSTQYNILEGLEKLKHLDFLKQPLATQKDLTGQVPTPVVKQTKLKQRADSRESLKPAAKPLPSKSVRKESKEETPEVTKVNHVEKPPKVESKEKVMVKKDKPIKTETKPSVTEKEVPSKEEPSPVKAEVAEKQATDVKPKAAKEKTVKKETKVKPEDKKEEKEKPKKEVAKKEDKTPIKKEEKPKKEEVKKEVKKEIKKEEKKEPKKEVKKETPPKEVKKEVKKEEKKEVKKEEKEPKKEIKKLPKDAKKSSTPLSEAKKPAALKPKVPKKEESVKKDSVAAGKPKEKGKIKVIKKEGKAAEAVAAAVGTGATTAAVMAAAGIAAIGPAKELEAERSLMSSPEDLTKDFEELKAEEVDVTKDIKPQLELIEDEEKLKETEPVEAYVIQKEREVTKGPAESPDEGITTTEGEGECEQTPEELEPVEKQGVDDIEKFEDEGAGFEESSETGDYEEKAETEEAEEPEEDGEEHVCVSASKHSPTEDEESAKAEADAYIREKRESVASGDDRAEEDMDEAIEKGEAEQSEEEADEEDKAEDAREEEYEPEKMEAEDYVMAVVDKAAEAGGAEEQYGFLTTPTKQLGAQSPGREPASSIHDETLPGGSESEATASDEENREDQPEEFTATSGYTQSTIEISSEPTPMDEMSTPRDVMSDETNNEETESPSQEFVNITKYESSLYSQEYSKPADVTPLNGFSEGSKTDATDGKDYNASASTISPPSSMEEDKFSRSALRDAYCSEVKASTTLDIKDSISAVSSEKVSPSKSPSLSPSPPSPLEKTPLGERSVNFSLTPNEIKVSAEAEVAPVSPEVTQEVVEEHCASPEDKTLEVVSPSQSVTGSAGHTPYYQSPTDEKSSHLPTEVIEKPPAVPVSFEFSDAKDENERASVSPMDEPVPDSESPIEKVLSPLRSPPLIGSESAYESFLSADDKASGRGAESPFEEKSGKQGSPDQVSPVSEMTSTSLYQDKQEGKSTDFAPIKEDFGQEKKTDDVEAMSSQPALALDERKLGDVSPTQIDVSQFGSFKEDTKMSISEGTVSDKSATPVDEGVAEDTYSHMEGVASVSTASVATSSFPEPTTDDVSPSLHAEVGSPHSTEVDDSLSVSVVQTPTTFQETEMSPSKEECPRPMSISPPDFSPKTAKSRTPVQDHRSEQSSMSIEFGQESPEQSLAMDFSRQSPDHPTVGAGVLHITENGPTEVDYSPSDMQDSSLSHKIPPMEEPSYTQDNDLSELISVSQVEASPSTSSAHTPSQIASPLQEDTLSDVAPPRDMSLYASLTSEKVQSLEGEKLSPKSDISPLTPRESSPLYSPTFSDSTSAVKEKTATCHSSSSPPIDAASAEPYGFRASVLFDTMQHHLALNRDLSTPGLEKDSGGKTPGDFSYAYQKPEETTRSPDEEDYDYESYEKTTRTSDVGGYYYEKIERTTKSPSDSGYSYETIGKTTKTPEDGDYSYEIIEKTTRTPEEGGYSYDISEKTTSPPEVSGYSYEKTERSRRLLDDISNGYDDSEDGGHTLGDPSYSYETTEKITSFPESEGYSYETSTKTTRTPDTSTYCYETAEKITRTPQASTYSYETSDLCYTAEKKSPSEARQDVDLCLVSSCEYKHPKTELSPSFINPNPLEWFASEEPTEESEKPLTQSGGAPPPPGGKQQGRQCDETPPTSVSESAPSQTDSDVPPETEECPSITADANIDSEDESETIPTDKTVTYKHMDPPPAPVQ
Microtubule-associated protein 1B (Homo sapiens), sequence (P46821 2207-2468 limits assumed): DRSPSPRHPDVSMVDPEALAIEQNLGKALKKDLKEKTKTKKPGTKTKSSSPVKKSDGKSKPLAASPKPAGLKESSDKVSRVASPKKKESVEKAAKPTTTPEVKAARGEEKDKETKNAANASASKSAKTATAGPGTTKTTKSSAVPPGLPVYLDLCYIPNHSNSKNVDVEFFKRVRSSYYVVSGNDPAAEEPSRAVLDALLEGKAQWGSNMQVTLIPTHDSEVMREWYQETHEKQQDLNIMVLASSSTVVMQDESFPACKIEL
Vesicle-trafficking protein SEC22b (Homo sapiens), sequence (O75396 whole entry): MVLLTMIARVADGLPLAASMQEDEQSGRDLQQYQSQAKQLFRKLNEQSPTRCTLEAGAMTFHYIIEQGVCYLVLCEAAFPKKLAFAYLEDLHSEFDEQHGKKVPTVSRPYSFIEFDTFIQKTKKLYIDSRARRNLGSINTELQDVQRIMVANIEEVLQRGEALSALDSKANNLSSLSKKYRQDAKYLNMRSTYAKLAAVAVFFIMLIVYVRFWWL
Actin-like protein 6A (Homo sapiens), sequence (O96019 whole entry): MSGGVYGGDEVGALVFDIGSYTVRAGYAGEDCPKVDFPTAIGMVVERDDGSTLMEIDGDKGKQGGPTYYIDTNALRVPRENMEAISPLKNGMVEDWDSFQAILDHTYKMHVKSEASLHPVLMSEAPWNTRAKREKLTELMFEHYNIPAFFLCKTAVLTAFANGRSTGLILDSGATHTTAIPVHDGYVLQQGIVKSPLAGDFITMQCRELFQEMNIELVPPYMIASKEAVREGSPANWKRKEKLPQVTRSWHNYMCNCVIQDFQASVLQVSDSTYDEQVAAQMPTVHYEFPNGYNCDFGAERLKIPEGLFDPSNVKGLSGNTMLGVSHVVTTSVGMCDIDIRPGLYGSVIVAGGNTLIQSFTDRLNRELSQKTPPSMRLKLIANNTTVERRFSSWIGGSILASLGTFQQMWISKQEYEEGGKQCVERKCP
Poly(rC)-binding protein 1 (Homo sapiens), sequence (Q15365 whole entry): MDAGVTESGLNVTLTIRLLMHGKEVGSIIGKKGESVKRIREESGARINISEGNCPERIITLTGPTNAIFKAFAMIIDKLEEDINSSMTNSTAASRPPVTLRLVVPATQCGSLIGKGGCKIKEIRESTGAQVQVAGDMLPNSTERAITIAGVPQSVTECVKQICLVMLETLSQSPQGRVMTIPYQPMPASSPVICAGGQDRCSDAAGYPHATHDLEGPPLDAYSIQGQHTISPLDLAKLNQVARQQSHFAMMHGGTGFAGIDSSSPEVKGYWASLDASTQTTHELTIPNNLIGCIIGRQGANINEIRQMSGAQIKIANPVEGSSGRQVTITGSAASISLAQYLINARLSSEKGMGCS
Mitogen-activated protein kinase kinase kinase 20 (Homo sapiens), sequence (Q9NYL2 2-800 limits assumed): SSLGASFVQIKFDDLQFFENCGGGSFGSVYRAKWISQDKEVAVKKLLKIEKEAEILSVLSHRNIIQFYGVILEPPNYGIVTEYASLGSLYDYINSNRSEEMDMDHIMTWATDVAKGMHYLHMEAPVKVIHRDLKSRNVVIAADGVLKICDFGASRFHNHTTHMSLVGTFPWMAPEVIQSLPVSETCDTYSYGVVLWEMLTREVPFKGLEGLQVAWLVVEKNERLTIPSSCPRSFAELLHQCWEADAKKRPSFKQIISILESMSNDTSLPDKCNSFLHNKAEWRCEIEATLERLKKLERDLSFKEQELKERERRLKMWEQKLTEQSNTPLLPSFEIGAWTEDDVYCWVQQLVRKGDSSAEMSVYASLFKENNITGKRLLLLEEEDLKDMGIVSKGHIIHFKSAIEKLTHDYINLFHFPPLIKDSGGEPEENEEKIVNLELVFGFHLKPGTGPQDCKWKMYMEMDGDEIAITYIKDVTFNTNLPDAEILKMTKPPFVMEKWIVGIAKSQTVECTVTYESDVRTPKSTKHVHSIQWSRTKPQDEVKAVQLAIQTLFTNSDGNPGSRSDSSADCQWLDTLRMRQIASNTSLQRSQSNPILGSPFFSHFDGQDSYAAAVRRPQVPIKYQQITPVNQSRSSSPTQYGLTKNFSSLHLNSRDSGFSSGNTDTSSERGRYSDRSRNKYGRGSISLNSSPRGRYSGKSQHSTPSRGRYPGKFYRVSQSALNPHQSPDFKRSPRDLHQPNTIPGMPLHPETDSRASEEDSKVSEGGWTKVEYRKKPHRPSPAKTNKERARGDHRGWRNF
Histone deacetylase 2 (Homo sapiens), sequence (Q92769 whole entry): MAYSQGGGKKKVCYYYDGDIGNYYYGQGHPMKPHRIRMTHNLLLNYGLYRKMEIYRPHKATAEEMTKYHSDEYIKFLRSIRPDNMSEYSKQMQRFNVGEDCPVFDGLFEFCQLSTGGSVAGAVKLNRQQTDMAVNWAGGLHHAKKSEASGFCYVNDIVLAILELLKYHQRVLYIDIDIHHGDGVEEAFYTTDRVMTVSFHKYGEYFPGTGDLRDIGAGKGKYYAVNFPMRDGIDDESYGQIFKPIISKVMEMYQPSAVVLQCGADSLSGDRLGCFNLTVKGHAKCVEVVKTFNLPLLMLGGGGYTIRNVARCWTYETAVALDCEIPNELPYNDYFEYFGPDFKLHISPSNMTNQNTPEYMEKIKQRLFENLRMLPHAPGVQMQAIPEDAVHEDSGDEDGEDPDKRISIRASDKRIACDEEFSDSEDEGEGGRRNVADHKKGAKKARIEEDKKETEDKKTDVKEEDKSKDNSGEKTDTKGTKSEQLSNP

Question: With `Cc1ccc(C(=O)Nc2cccc(C(F)(F)F)c2)cc1Nc1nc(-c2cccnc2)nc2nn(C)cc12` as the compound, how does the ED50 [1] read?
Answer: 0.0113 µM

Question: What about the ED50 [2] of the same compound?
Answer: 0.00259 mM

Question: What about the ED50 [3] of the same compound?
Answer: 0.0178 µM

Question: And the ED50 [4]?
Answer: 1.79 µM

Question: And the ED50 [5]?
Answer: 203 nM

Question: What about the ED50 [6] of the same compound?
Answer: 0.0876 µM

Question: And the ED50 [7]?
Answer: 0.0162 µM

Question: And the ED50 [8]?
Answer: 16.7 nM

Question: What about the ED50 [9] of the same compound?
Answer: 4.53 nM

Question: And the ED50 [10]?
Answer: 954 nM

Question: And the ED50 [11]?
Answer: 22.8 µM

Question: And the ED50 [12]?
Answer: 100 nM

Question: What about the ED50 [13] of the same compound?
Answer: 19.9 µM

Question: And the ED50 [14]?
Answer: 7.75 µM

Question: What about the ED50 [15] of the same compound?
Answer: 3 µM

Question: And the ED50 [16]?
Answer: 10.2 µM

Question: And the ED50 [17]?
Answer: 4780 nM

Question: What about the ED50 [18] of the same compound?
Answer: 58.7 µM

Question: And the ED50 [19]?
Answer: 3750 nM

Question: What about the ED50 [20] of the same compound?
Answer: 0.0845 µM

Question: And the ED50 [21]?
Answer: 3.32 µM

Question: And the ED50 [22]?
Answer: 55.8 nM

Question: What about the ED50 [23] of the same compound?
Answer: 40.6 nM

Question: And the ED50 [24]?
Answer: 1810 µM

Question: What about the ED50 [25] of the same compound?
Answer: 27.4 nM

Question: What about the ED50 [26] of the same compound?
Answer: 0.0174 µM

Question: What about the ED50 [27] of the same compound?
Answer: 0.00432 µM

Question: What about the ED50 [28] of the same compound?
Answer: 0.0881 µM

Question: What about the ED50 [29] of the same compound?
Answer: 0.053 µM

Question: And the ED50 [30]?
Answer: 38.5 nM

Question: What about the ED50 [31] of the same compound?
Answer: 56.7 nM

Question: And the IC50 [32]?
Answer: 1660 nM

Question: And the ED50 [33]?
Answer: 88.9 nM

Question: And the ED50 [34]?
Answer: 113 µM

Question: What about the ED50 [35] of the same compound?
Answer: 18.8 nM

Question: What about the ED50 [36] of the same compound?
Answer: 1350 nM

Question: And the ED50 [37]?
Answer: 1.63 µM

Question: And the ED50 [38]?
Answer: 12.6 µM

Question: And the ED50 [39]?
Answer: 39.2 µM

Question: And the ED50 [40]?
Answer: 202 nM

Question: What about the ED50 [41] of the same compound?
Answer: 32.5 µM

Question: And the ED50 [42]?
Answer: 10 nM

Question: And the ED50 [43]?
Answer: 387 nM

Question: And the ED50 [44]?
Answer: 46.8 nM

Question: And the ED50 [45]?
Answer: 1.2 nM

Question: And the ED50 [46]?
Answer: 5.5 nM

Question: And the ED50 [47]?
Answer: 1760 nM

Question: What does the source list for `Cc1ccc(C(=O)Nc2cccc(C(F)(F)F)c2)cc1Nc1nc(-c2cccnc2)nc2c1cnn2C`?
Answer: ED50 [1]: 11.5 µM; ED50 [2]: 2.57 mM; ED50 [3]: 11.2 µM; ED50 [4]: 7.62 µM; ED50 [5]: 460 nM; ED50 [6]: 732 µM; ED50 [7]: 6.18 µM; ED50 [8]: 38.8 nM; ED50 [9]: 4770 nM; ED50 [10]: 1.89 nM; ED50 [11]: 0.00517 µM; ED50 [12]: 2990 nM; ED50 [13]: 11.1 µM; ED50 [14]: 0.907 µM; ED50 [15]: 18.2 µM; ED50 [16]: 0.112 µM; ED50 [17]: 217 nM; ED50 [18]: 1700 µM; ED50 [19]: 28.2 nM; ED50 [20]: 6.64 µM; ED50 [21]: 103 µM; ED50 [22]: 18 nM; ED50 [23]: 3.86 nM; ED50 [24]: 6.36 µM; ED50 [25]: 1290 nM; ED50 [26]: 9.39 µM; ED50 [27]: 6.46 µM; ED50 [28]: 18.9 µM; ED50 [29]: 13 µM; ED50 [30]: 110 nM; ED50 [31]: 35.8 nM; IC50 [32]: 3 nM; ED50 [33]: 109 nM; ED50 [34]: 4.69 µM; ED50 [35]: 80.9 nM; ED50 [36]: 21.1 nM; ED50 [37]: 257 µM; ED50 [38]: 3.26 µM; ED50 [39]: 0.0218 µM; ED50 [40]: 3400 nM; ED50 [41]: 5.98 µM; ED50 [42]: 24.4 nM; ED50 [43]: 542 nM; ED50 [44]: 490 nM; ED50 [45]: 2680 nM; ED50 [46]: 14.2 nM; ED50 [47]: 121 nM
